{
  "source": "patent US11072598B2",
  "about": "“Somatostatin modulators and uses thereof” (CRINETICS PHARMACEUTICALS, INC., priority 2017, dated 2021)",
  "target": "T1, human somatostatin receptor subtype 2 (Homo sapiens, UniProt P30874)",
  "T1 construct": "expressed in transfected cells",
  "T1 sequence (P30874 whole entry)": "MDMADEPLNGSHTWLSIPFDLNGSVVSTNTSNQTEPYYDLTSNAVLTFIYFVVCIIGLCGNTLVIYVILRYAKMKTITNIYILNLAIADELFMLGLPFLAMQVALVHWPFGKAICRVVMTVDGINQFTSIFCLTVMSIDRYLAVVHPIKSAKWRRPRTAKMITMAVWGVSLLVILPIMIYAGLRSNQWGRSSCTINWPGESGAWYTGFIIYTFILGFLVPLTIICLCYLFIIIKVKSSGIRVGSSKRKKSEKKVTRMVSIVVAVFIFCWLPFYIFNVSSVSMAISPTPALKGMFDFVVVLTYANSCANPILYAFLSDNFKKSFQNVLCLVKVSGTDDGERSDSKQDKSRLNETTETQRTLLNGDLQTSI",
  "experiment": "cAMP functional assay for SSTR2 agonists",
  "type": "cell-based",
  "settings": "inhibition of cAMP activities via human SST2 receptor (SSTR2), CHO-K1 cells; read-out: EC50",
  "how_it_was_run": "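CHO-K1 cells stably expressing human SSTR2 were treated for 20 min at 37 °C with compound plus NKH477 (added as 1.6 μM) in HBSS with IBMX. Intracellular cAMP was measured by HTRF against a standard curve. EC50 values came from concentration-response curves.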",
  "data": [
    {"molecule": "CO[C@@H]1CN(c2c(-c3cc(C)cc(F)c3)cnnc2-c2cc3ccc(Cl)cc3[nH]2)CC[C@H]1N", "note": "(relative stereo) [Compound 3-11, trans-1-[3-(6-chloro-1H-indol-2-yl)-5-(3-fluoro-5-methylphenyl)pyridazin-4-yl]-3-methoxypiperidin-4-amine]", "values": [
      {"measurement": "EC50", "result": "< 0.01", "unit": "µM"}
    ]},
    {"molecule": "Cc1cc(F)cc(-c2cnc(N)c(-c3nc4cccc(Cl)c4[nH]3)c2N2CCC(N)CC2)c1", "note": "[Compound 1-73, 4-(4-aminopiperidin-1-yl)-3-(7-chloro-1H-1,3-benzodiazol-2-yl)-5-(3-fluoro-5-methylphenyl)pyridin-2-amine]", "values": [
      {"measurement": "EC50", "result": "< 0.01", "unit": "µM"}
    ]},
    {"molecule": "Cc1cc(C#N)cc(-c2cnc(N)c(-c3nc4cc(Cl)ccc4[nH]3)c2N2CCC(N)CC2)c1", "note": "[Compound 1-25, 3-[6-amino-4-(4-aminopiperidin-1-yl)-5-(5-chloro-1H-1,3-benzodiazol-2-yl)pyridin-3-yl]-5-methylbenzonitrile]", "values": [
      {"measurement": "EC50", "result": "< 0.01", "unit": "µM"}
    ]},
    {"molecule": "Cc1cc(F)cc(-c2cnc(N)c(-c3nc4c(F)cc(OCC#N)cc4[nH]3)c2N2CCC(N)CC2)c1", "note": "[Compound 1-60, 2-({2-[2-amino-4-(4-aminopiperidin-1-yl)-5-(3-fluoro-5-methylphenyl)pyridin-3-yl]-4-fluoro-1H-1,3-benzodiazol-6-yl}oxy)acetonitrile]", "values": [
      {"measurement": "EC50", "result": "< 0.01", "unit": "µM"}
    ]},
    {"molecule": "COc1cc(F)cc2nc(-c3c(N)ncc(-c4cccc(Cl)c4)c3N3CCC(N)CC3)[nH]c12", "note": "[Compound 1-92, 4-(4-aminopiperidin-1-yl)-5-(3-chlorophenyl)-3-(5-fluoro-7-methoxy-1H-1,3-benzodiazol-2-yl)pyridin-2-amine]", "values": [
      {"measurement": "EC50", "result": "< 0.01", "unit": "µM"}
    ]},
    {"molecule": "CON(C)C(=O)c1ccc2[nH]c(-c3c(N)ncc(-c4cc(C)cc(F)c4)c3N3CCC(N)CC3)nc2c1", "note": "[Compound 1-24, 2-[2-amino-4-(4-aminopiperidin-1-yl)-5-(3-fluoro-5-methylphenyl)pyridin-3-yl]-N-methoxy-N-methyl-1H-1,3-benzodiazole-5-carboxamide]", "values": [
      {"measurement": "EC50", "result": "< 0.01", "unit": "µM"}
    ]},
    {"molecule": "N#Cc1cc(F)c2[nH]c(-c3c(N)ncc(-c4cc(F)cc(Cl)c4)c3N3CCC(N)CC3)nc2c1", "note": "[Compound 1-85, 2-[2-amino-4-(4-aminopiperidin-1-yl)-5-(3-chloro-5-fluorophenyl)pyridin-3-yl]-7-fluoro-1H-1,3-benzodiazole-5-carbonitrile]", "values": [
      {"measurement": "EC50", "result": "< 0.01", "unit": "µM"}
    ]},
    {"molecule": "Cc1cc(Cl)cc(-c2cnc(N)c(C=NO)c2N2CCC(N)CC2)c1", "note": "[Compound 1-39, 4-(4-aminopiperidin-1-yl)-5-(3-chloro-5-methylphenyl)-3-[(hydroxyimino)methyl]pyridin-2-amine]", "values": [
      {"measurement": "EC50", "result": "> 0.1", "unit": "µM"}
    ]},
    {"molecule": "COc1ccc2cc(-c3nncc(-c4cc(C)cc(F)c4)c3N3CCC(N)CC3)[nH]c2c1", "note": "[Compound 3-5, 1-[5-(3-fluoro-5-methylphenyl)-3-(6-methoxy-1H-indol-2-yl)pyridazin-4-yl]piperidin-4-amine]", "values": [
      {"measurement": "EC50", "result": "< 0.01", "unit": "µM"}
    ]},
    {"molecule": "COc1ncc(-c2cc(C)cc(C#N)c2)c(N2CCC(N)CC2)c1-c1nc2cc(Cl)ccc2[nH]1", "note": "[Compound 2-6, 3-[4-(4-aminopiperidin-1-yl)-5-(5-chloro-1H-1,3-benzodiazol-2-yl)-6-methoxypyridin-3-yl]-5-methylbenzonitrile]", "values": [
      {"measurement": "EC50", "result": "0.01 to 0.1", "unit": "µM"}
    ]},
    {"molecule": "COC(=O)Nc1ccc2[nH]c(-c3c(N)ncc(-c4cc(C)cc(F)c4)c3N3CCC(N)CC3)nc2c1", "note": "[Compound 1-45, methyl N-{2-[2-amino-4-(4-aminopiperidin-1-yl)-5-(3-fluoro-5-methylphenyl)pyridin-3-yl]-1H-1,3-benzodiazol-5-yl}carbamate]", "values": [
      {"measurement": "EC50", "result": "< 0.01", "unit": "µM"}
    ]},
    {"molecule": "Cc1cc(C)cc(-c2cnc(N)c(-c3nc4cc(Cl)ccc4[nH]3)c2N2CC[C@@H](N)[C@H](C#N)C2)c1", "note": "(relative stereo) [Compound 1-41, trans-4-amino-1-[2-amino-3-(5-chloro-1H-1,3-benzodiazol-2-yl)-5-(3,5-dimethylphenyl)pyridin-4-yl]piperidine-3-carbonitrile]", "values": [
      {"measurement": "EC50", "result": "< 0.01", "unit": "µM"}
    ]},
    {"molecule": "COc1ncc(-c2cc(F)cc(F)c2)c(N2CCC(N)CC2)c1-c1nc2cc(Cl)ccc2[nH]1", "note": "[Compound 2-14, 1-[3-(5-chloro-1H-1,3-benzodiazol-2-yl)-5-(3,5-difluorophenyl)-2-methoxypyridin-4-yl]piperidin-4-amine]", "values": [
      {"measurement": "EC50", "result": "0.01 to 0.1", "unit": "µM"}
    ]},
    {"molecule": "COc1cc(F)cc2nc(-c3c(N4CC(F)C4)ncc(-c4cccc(F)c4)c3N3CCC(N)CC3)[nH]c12", "note": "[Compound 4-9, 1-[3-(5-fluoro-7-methoxy-1H-1,3-benzodiazol-2-yl)-2-(3-fluoroazetidin-1-yl)-5-(3-fluorophenyl)pyridin-4-yl]piperidin-4-amine]", "values": [
      {"measurement": "EC50", "result": "< 0.01", "unit": "µM"}
    ]},
    {"molecule": "CO[C@@H]1CN(c2c(-c3cc(C)cc(F)c3)cnc(N)c2-c2nc3cc(Cl)ccc3[nH]2)CC[C@H]1N", "note": "(relative stereo) [Compound 1-7, 4-[trans-4-amino-3-methoxypiperidin-1-yl]-3-(5-chloro-1H-1,3-benzodiazol-2-yl)-5-(3-fluoro-5-methylphenyl)pyridin-2-amine]", "values": [
      {"measurement": "EC50", "result": "< 0.01", "unit": "µM"}
    ]},
    {"molecule": "Cc1cc(F)cc(-c2cnnc(-c3cc4cccc(C#N)c4[nH]3)c2N2CCC(N)CC2)c1", "note": "[Compound 3-23, 2-[4-(4-aminopiperidin-1-yl)-5-(3-fluoro-5-methylphenyl)pyridazin-3-yl]-1H-indole-7-carbonitrile]", "values": [
      {"measurement": "EC50", "result": "< 0.01", "unit": "µM"}
    ]},
    {"molecule": "COc1cc(Cl)cc2nc(-c3c(N)ncc(-c4cc(C)cc(F)c4)c3N3CCC(N)CC3)[nH]c12", "note": "[Compound 1-94, 4-(4-aminopiperidin-1-yl)-3-(5-chloro-7-methoxy-1H-1,3-benzodiazol-2-yl)-5-(3-fluoro-5-methylphenyl)pyridin-2-amine]", "values": [
      {"measurement": "EC50", "result": "< 0.01", "unit": "µM"}
    ]},
    {"molecule": "Cc1cc(F)cc(-c2cnc(N)c(-c3nc4cc(S(N)(=O)=O)ccc4[nH]3)c2N2CCC(N)CC2)c1", "note": "[Compound 1-9, 2-[2-amino-4-(4-aminopiperidin-1-yl)-5-(3-fluoro-5-methylphenyl)pyridin-3-yl]-1H-1,3-benzodiazole-5-sulfonamide]", "values": [
      {"measurement": "EC50", "result": "< 0.01", "unit": "µM"}
    ]},
    {"molecule": "COc1cc(F)cc2[nH]c(-c3c(N)ncc(-c4cc(C)cc(C)c4)c3N3CCC(N)CC3)nc12", "note": "[Compound 1-83, 4-(4-aminopiperidin-1-yl)-5-(3,5-dimethylphenyl)-3-(6-fluoro-4-methoxy-1H-1,3-benzodiazol-2-yl)pyridin-2-amine]", "values": [
      {"measurement": "EC50", "result": "< 0.01", "unit": "µM"}
    ]},
    {"molecule": "CNC1CCN(c2c(-c3cc(C)cc(F)c3)cnc(N)c2-c2nc3cc(C#N)cc(F)c3[nH]2)CC1", "note": "[Compound 4-3, 2-[2-amino-5-(3-fluoro-5-methylphenyl)-4-[4-(methylamino)piperidin-1-yl]pyridin-3-yl]-7-fluoro-1H-1,3-benzodiazole-5-carbonitrile]", "values": [
      {"measurement": "EC50", "result": "< 0.01", "unit": "µM"}
    ]},
    {"molecule": "Cc1cc(F)cc(-c2cnnc(-c3cc4ccc(C#N)cc4[nH]3)c2N2CCC(N)CC2)c1", "note": "[Compound 3-12, 2-[4-(4-aminopiperidin-1-yl)-5-(3-fluoro-5-methylphenyl)pyridazin-3-yl]-1H-indole-6-carbonitrile]", "values": [
      {"measurement": "EC50", "result": "< 0.01", "unit": "µM"}
    ]}
  ]
}
